Here are results for 21 molecules from US20250195530A1, “POLQ INHIBITORS” (ASTRAZENECA AB, priority 2022, published 2025).

The test system of test [1] is DLD-1 BRCA2−/− cells. Description: Homologous recombination synthetic lethal inhibition of proliferation, DLD-1 BRCA2-/- (Cell Titre Glo 3D). It is filed as cell-based. Conditions: Homo sapiens, DLD-1, 288 h, DLD-1 BRCA2−/− cells, 12 days; read-out: POLQ PD Prolif Lumin BRCA2 −/− mean pIC50 (converted). Put shortly:
(§1)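 Read-out: CellTiter-Glo 3D luminescence, day 7 for wt DLD-1, day 12 for BRCA2−/−, about 8-9 population doublings each. Seeding 1,500 or 3,000 cells/mL respectively. Dose range 10 μM–0.51 nM, 3-fold, 10 points, with re-dosing on day 6. IC50 from curve fit.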

Test [2] relates to DLD-1 cells. Description: Inhibition of proliferation, DLD-1 BRCA2 wt control (Cell Titre Glo 3D). It is filed as cell-based. The settings on record: Homo sapiens, DLD-1, 168 h, DLD-1 BRCA2 wt cells, 7 days; read-out: POLQ PD Prolif Lumin DLD1 mean pIC50 (converted). The method, boiled down: as §1

With `CN1CCN(CCOc2ccc(-c3nc4c(OC5(C)CC5)ncnc4n3Cc3cccc(F)c3F)c(Cl)c2)CC1` [Example E3, 8-(2-chloro-4-(2-(4-methylpiperazin-1-yl)ethoxy)phenyl)-9-(2,3-difluorobenzyl)-6-(1-methylcyclopropoxy)-9H-purine], the IC50 in test [1] was 50.1 nM; in test [2] it was 3980 nM.

Regarding `CN1CCN(CCOc2ccc(-c3nc4c(OC5(C)CC5)ncnc4n3CCc3ccccc3)c(Cl)c2)CC1` [Example E4, 8-(2-chloro-4-(2-(4-methylpiperazin-1-yl)ethoxy)phenyl)-6-(1-methylcyclopropoxy)-9-phenethyl-9H-purine], the values for the IC50 in test [1] and in test [2] were 200 nM and 7940 nM, respectively.

As to `CN1CCN(CCOc2ccc(-c3nc4c(OC5(C)CC5)ncnc4n3Cc3ccccn3)c(Cl)c2)CC1` [Example E5, 8-(2-chloro-4-(2-(4-methylpiperazin-1-yl)ethoxy)phenyl)-6-(1-methylcyclopropoxy)-9-(pyridin-2-ylmethyl)-9H-purine], the IC50 in test [1] is 501 nM; in test [2] it was 7940 nM.

With `CN1CCN(CCOc2ccc(-c3nc4c(OC5(C)CC5)ncnc4n3Cc3ncccn3)c(Cl)c2)CC1` [Example E6, 8-(2-chloro-4-(2-(4-methylpiperazin-1-yl)ethoxy)phenyl)-6-(1-methylcyclopropoxy)-9-(pyrimidin-2-ylmethyl)-9H-purine], the IC50 in test [1] is 1580 nM; in test [2], over 10000 nM.

Take `CC1(Oc2ncnc3c2nc(-c2ccc(OCCN4CCNCC4)cc2Cl)n3Cc2ccccn2)CC1` [Example E7, 8-(2-chloro-4-(2-(piperazin-1-yl)ethoxy)phenyl)-6-(1-methylcyclopropoxy)-9-(pyridin-2-ylmethyl)-9H-purine]: the IC50 in test [1] was 1260 nM; in test [2], over 10000 nM.

As for `Cc1cc(N2CCC(N)CC2)ncc1-c1nc2c(OC3(C)CC3)ncnc2n1Cc1ccccc1` [Example F1, 1-(5-(9-benzyl-6-(1-methylcyclopropoxy)-9H-purin-8-yl)-4-methylpyridin-2-yl)piperidin-4-amine], the IC50 was 398 nM in test [1] and over 10000 nM in test [2].

Regarding `Cc1cc(N2CC(N(C)C)C2)ncc1-c1nc2c(OC3(C)CC3)ncnc2n1Cc1ccccc1` [Example F2, 1-(5-(9-benzyl-6-(1-methylcyclopropoxy)-9H-purin-8-yl)-4-methylpyridin-2-yl)-N,N-dimethylazetidin-3-amine], the IC50 was 316 nM in test [1] and over 10000 nM in test [2].

Turning to `Cc1cc(N2CCC(N(C)C)CC2)ncc1-c1nc2c(OC3(C)CC3)ncnc2n1Cc1ccccc1` [Example F3, 1-(5-(9-benzyl-6-(1-methylcyclopropoxy)-9H-purin-8-yl)-4-methylpyridin-2-yl)-N,N-dimethylpiperidin-4-amine], the IC50 in test [1] was 251 nM; in test [2] it was over 10000 nM.

As to `Cc1cc(OCCCN2CCNCC2)ncc1-c1nc2c(OC3(C)CC3)ncnc2n1Cc1ccccc1` [Example G1, 9-benzyl-8-(4-methyl-6-(3-(piperazin-1-yl)propoxy)pyridin-3-yl)-6-(1-methylcyclopropoxy)-9H-purine], the IC50 in test [1] was 501 nM; in test [2], 6310 nM.

As to `Cc1cc(OCCCN(C)C)ncc1-c1nc2c(OC3(C)CC3)ncnc2n1Cc1ccccc1` [Example G2, 3-((5-(9-benzyl-6-(1-methylcyclopropoxy)-9H-purin-8-yl)-4-methylpyridin-2-yl)oxy)-N,N-dimethylpropan-1-amine], the figures for the IC50 in test [1] and in test [2] were 1000 nM and over 10000 nM, respectively.

On to `CC(=O)N1CCN(CCCOc2cc(C)c(-c3nc4c(OC5(C)CC5)ncnc4n3Cc3ccccc3)cn2)CC1` [Example G3, 1-(4-(3-((5-(9-benzyl-6-(1-methylcyclopropoxy)-9H-purin-8-yl)-4-methylpyridin-2-yl)oxy)propyl)piperazin-1-yl)ethan-1-one], for which the IC50 is 1000 nM in test [1] and 6310 nM in test [2].

For `CC(=O)N1CCN(CCOc2cc(C)c(-c3nc4c(OC5(C)CC5)ncnc4n3Cc3ccccc3)cn2)CC1` [Example G4, 1-(4-(2-((5-(9-benzyl-6-(1-methylcyclopropoxy)-9H-purin-8-yl)-4-methylpyridin-2-yl)oxy)ethyl)piperazin-1-yl)ethan-1-one], the IC50 in test [1] is 1260 nM; in test [2] it was over 10000 nM.

Take `Cc1cc(OCCCN2CCCC2)ncc1-c1nc2c(OC3(C)CC3)ncnc2n1Cc1ccccc1` [Example G5, 9-benzyl-8-(4-methyl-6-(3-(pyrrolidin-1-yl)propoxy)pyridin-3-yl)-6-(1-methylcyclopropoxy)-9H-purine]: the results for the IC50 in test [1] and in test [2] were 398 nM and 7940 nM, respectively.

`Cc1cc(OCCN2CCNCC2)ncc1-c1nc2c(OC3(C)CC3)ncnc2n1Cc1ccccc1` [Example G6, 9-benzyl-8-(4-methyl-6-(2-(piperazin-1-yl)ethoxy)pyridin-3-yl)-6-(1-methylcyclopropoxy)-9H-purine]: the IC50 is 501 nM in test [1] and over 10000 nM in test [2].

Take `Cc1cc(OCCCN2CCOCC2)ncc1-c1nc2c(OC3(C)CC3)ncnc2n1Cc1ccccc1` [Example G7, 4-(3-((5-(9-benzyl-6-(1-methylcyclopropoxy)-9H-purin-8-yl)-4-methylpyridin-2-yl)oxy)propyl)morpholine]: the IC50 in test [1] is 398 nM; in test [2], over 10000 nM.

Regarding `Cc1cc(OCCN)ncc1-c1nc2c(OC3(C)CC3)ncnc2n1Cc1ccccc1` [Example G8, 2-((5-(9-benzyl-6-(1-methylcyclopropoxy)-9H-purin-8-yl)-4-methylpyridin-2-yl)oxy)ethan-1-amine], the results for the IC50 in test [1] and in test [2] were 2000 nM and 7940 nM, respectively.

Regarding `Cc1cc(OCCCN)ncc1-c1nc2c(OC3(C)CC3)ncnc2n1Cc1ccccc1` [Example G9, 3-((5-(9-benzyl-6-(1-methylcyclopropoxy)-9H-purin-8-yl)-4-methylpyridin-2-yl)oxy)propan-1-amine], the values for the IC50 in test [1] and in test [2] were 794 nM and 1580 nM, respectively.

Take `CC(=O)N1CC(Oc2cc(C)c(-c3nc4c(OC5(C)CC5)ncnc4n3Cc3ccccc3)cn2)C1` [Example G10, 1-(3-((5-(9-benzyl-6-(1-methylcyclopropoxy)-9H-purin-8-yl)-4-methylpyridin-2-yl)oxy)azetidin-1-yl)ethan-1-one]: the figures for the IC50 in test [1] and in test [2] were 631 nM and over 10000 nM, respectively.

Turning to `Cc1cc(O[C@H]2CCNC2)ncc1-c1nc2c(OC3(C)CC3)ncnc2n1Cc1ccccc1` [Example G11, (S)-9-benzyl-8-(4-methyl-6-(pyrrolidin-3-yloxy)pyridin-3-yl)-6-(1-methylcyclopropoxy)-9H-purine], the results for the IC50 in test [1] and in test [2] were 1260 nM and 6310 nM, respectively.

For `Cc1cc(OCCN(C)C)ncc1-c1nc2c(OC3(C)CC3)ncnc2n1Cc1ccccc1` [Example G12, 2-((5-(9-benzyl-6-(1-methylcyclopropoxy)-9H-purin-8-yl)-4-methylpyridin-2-yl)oxy)-N,N-dimethylethan-1-amine], the IC50 was 316 nM in test [1] and over 10000 nM in test [2].

Consider `Cc1cc(O[C@H]2CCCNC2)ncc1-c1nc2c(OC3(C)CC3)ncnc2n1Cc1ccccc1` [Example G13, (S)-9-benzyl-8-(4-methyl-6-(piperidin-3-yloxy)pyridin-3-yl)-6-(1-methylcyclopropoxy)-9H-purine], for which the IC50 was 501 nM in test [1] and over 10000 nM in test [2].
